According to patent US20240216312A1, “PPAR-AGONISTS FOR USE IN THE TREATMENT OF LIVER FAILURE” (Genfit, priority 2021, published 2024):
Read-outs that look alike come from different tables or passages of the source.

Tests used:
THP1 macrophages = assay: LPS (Klebsiella pneumoniae) activation of THP1 macrophages, MCP1 and TNFα secretion (HTRF); assay type: cell-based, human; conditions: 24 h, then LPS Klebsiella 6 h; for inhibition at 1 µM / inhibition at 10 µM: Homo sapiens; for inhibition at 1 µM: THP-1, 1 μM; for inhibition at 10 µM: THP-1, 10 μM
Experimental: In order to test the efficacy of the compounds on macrophage activation and pro-inflammatory cytokine production, 2.5×10^4 THP-1 cells were cultured in a 384-well plate and treated with 100 ng/mL PMA (#P8139, Sigma) for 24 h to induce differentiation into macrophages.
Then, medium was removed and FBS-deprived medium containing 1 or 10 μM compound was added for 24 h. Finally, THP1 macrophages were stimulated for 6 h with 100 ng/mL LPS (Klebsiella pneumoniae, #L4268, Sigma-Aldrich).
Monocyte chemoattractant protein 1 (MCP1) and Tumor necrosis α (TNFα) were measured in cell supernatants by Homogeneous Time Resolved Fluorescence (HTRF, #62[…] for TNFα, and 62HCCL2PEG for MCP1, Cisbio). Fluorescence was measured with Infinite 500 (#30019337, Tecan) to determine the concentration of cytokines.
In order to evaluate the effect of the compounds according to the invention on LPS-induced cytokines production by macrophages, the percentage of inhibition over the vehicle condition were calculated for each compound at 1 and 10 μM.

HepG2 cells = assay: Staurosporin-induced apoptosis in HepG2 cells, caspase 3/7 activity; assay type: cell-based, human; conditions: 16 h pre-treatment, then 10 μM staurosporin 4 h; for % Inhibition of caspase activity over mean Veh.: 0.3 μM; for inhibition at 0.3 µM: Homo sapiens, HepG2, 0.3 μM, read-out: % Inhibition of caspase activity over mean Veh.
Experimental: In order to evaluate the effect of the compounds on human hepatocytes that undergo a cellular stress induced by staurosporin, the human hepatoblastoma-derived HepG2 cell line (ECACC, #85011430, Sigma-Aldrich) was cultured in high-glucose DMEM medium (#41965, Gibco, France) supplemented with 10% of fetal bovine serum (FBS, #10270, Gibco), 1% penicillin/streptomycin (#15140, Gibco), 1% sodium pyruvate (#11360, Gibco) and 1% MEM non-essential amino acids (#11140, Gibco) in a 5% CO2 incubator at 37° C.
To evaluate caspase 3/7 activity, which is a surrogate marker of apoptosis, 1.5×10^4 cells were plated in a 384-well plate (#781080, Greiner, France). After cell adherence (8 hours), cells were serum starved for 16 h in the presence of 0.3 μM of compounds or vehicle. Cpd.1 was also used at 3 and 10 μM. Thereafter, cells were treated with 10 μM staurosporin (#569397, Sigma-Aldrich, Germany) supplemented with compound for additional 4 hours before cell lysis and caspase activity measurement.
Caspase 3/7 activity was measured using Caspase Glow™ 3/7 assay (#G8093, Promega, USA). Luminescence was measured using a Spark microplate reader (#30086376, Tecan, USA). The amount of luminescence (RLU) directly correlates with caspase 3/7 activity.

[1] = tested on: LPS-induced endotoxemia, Sprague Dawley rats; assay: LPS-induced endotoxemia in rats, hepatic markers and serum TNFα; assay type: in vivo; conditions: rat, 100 mg/kg/day oral 3 days before LPS, 3 h after LPS
[2] = tested on: LPS/GaIN acute liver failure, C57BL/6J mice; assay: LPS/GalN model of acute liver failure in mice, hepatic gene expression, serum cytokines and albumin; assay type: in vivo, mouse; conditions: mouse serum, 1 mg/kg/day oral 3 days before LPS/GaIN, 4 h after injection
[3] = read-out: % inhibition of MCP1 secretion over mean Veh.
[4] = read-out: % inhibition of TNFα secretion over mean Veh.

CCO[C@H](COc1ccc(C(F)(F)F)cc1)CSc1ccc(OCC(=O)O)c(C)c1.NCCCC[C@H](N)C(=O)O.O.O [Cpd. 20, seladelpar lysine, reference compound]
% inhibition of MCP1 secretion over mean Veh. (THP1 macrophages; 1 μM): 105%

COC(CCc1cc(C)c(OC(C)(C)C(=O)O)c(C)c1)c1ccc(Br)cc1 (stereo not drawn) [Cpd. 14, 2-[2,6-dimethyl-4-[3-[4-bromophenyl]-3-methoxypropyl]phenoxy]-2-methylpropanoic acid]
inhibition at 1 µM (THP1 macrophages; [3]): 91%
inhibition at 1 µM (THP1 macrophages; [4]): 18%

CCc1ccc(CCOc2ccc(CC3SC(=O)NC3=O)cc2)nc1 (stereo not drawn) [Cpd. 21, pioglitazone, reference compound]
inhibition at 1 µM (THP1 macrophages; [3]): 80%
inhibition at 1 µM (THP1 macrophages; [4]): 0%
inhibition at 10 µM (THP1 macrophages; [4]): 11 to 58%

CCOC(CCc1ccc(OC(C)(C)C(=O)O)c(Cl)c1Cl)c1sc(-c2ccc(C(F)(F)F)cc2)nc1C (stereo not drawn) [Cpd. 9, 2-(2,3-dichloro-4-(3-ethoxy-3-(4-methyl-2-(4-(trifluoromethyl)-phenyl)thiazol-5-yl)propyl)phenoxy)-2-methylpropanoic acid]
inhibition at 1 µM (THP1 macrophages; [3]): 86%
inhibition at 1 µM (THP1 macrophages; [4]): 3%

COC(CCc1cc(C)c(OC(C)(C)C(=O)O)c(C)c1)c1ccc(C(F)(F)F)cc1 (stereo not drawn) [Cpd. 13, 2-(4-(3-methoxy-3-(4-(trifluoromethyl)phenyl)propyl)-2,6-dimethylphenoxy)-2-methylpropanoic acid]
% inhibition of MCP1 secretion over mean Veh. (THP1 macrophages; 10 μM, 10 µM): 111%
% inhibition of TNFα secretion over mean Veh. (THP1 macrophages; 10 μM, 10 µM): 18%
inhibition at 1 µM (THP1 macrophages; [3]): 99%
inhibition at 1 µM (THP1 macrophages; [4]): 0%
inhibition at 10 µM (THP1 macrophages; [4]): 11 to 58%
% Inhibition of caspase activity over mean Veh. (HepG2 cells): 79%

CSc1ccc(C(CCc2cc(C)c(OC(C)(C)C(=O)O)c(C)c2)OC(C)C)cc1 (stereo not drawn) [Cpd. 5, 2-[2,6-dimethyl-4-[3-[4-(methylthio)phenyl]-3-isopropyloxypropyl]phenoxy]-2-methylpropanoic acid]
inhibition at 1 µM (THP1 macrophages; [3]): 93%

CON=C(CCc1cc(C)c(OC(C)(C)C(=O)O)c(C)c1)c1ccc(OC(F)(F)F)cc1 [Cpd. 7, 2-(4-(3-(methoxyimino)-3-(4-(trifluoromethoxy)phenyl)propyl)-2,6-dimethylphenoxy)-2-methylpropanoic acid]
inhibition at 1 µM (THP1 macrophages; [3]): 95%
inhibition at 1 µM (THP1 macrophages; [4]): 25%

Cc1cc(CCC(O)c2ccc(OC(F)(F)F)cc2)cc(C)c1OC(C)(C)C(=O)O (stereo not drawn) [Cpd. 6, 2-(4-(3-hydroxy-3-(4-(trifluoromethoxy)phenyl)propyl)-2,6-dimethylphenoxy)-2-methylpropanoic acid]
inhibition at 1 µM (THP1 macrophages; [3]): 94%
inhibition at 0.3 µM (HepG2 cells): 26 to 79%

Cc1cc(CCC(=O)c2ccc(OC(F)(F)F)cc2)cc(C)c1OC(C)(C)C(=O)O [Cpd. 2, 2-[2,6-dimethyl-4-[3-[4-(trifluoromethyloxy)phenyl]-3-oxo-propyl]phenoxy]-2-methylpropanoic acid]
inhibition at 1 µM (THP1 macrophages; [3]): 96%

CC(C)OC(=O)C(C)(C)Oc1ccc(C(=O)c2ccc(Cl)cc2)cc1 [Cpd. 19, fenofibrate]
reduction of LPS-induced serum TNFα level [1]: 85%
restoration of serum albumin concentration compared to vehicle [1]: 79%

CN(CCOc1ccc(CC2SC(=O)NC2=O)cc1)c1ccccn1 (stereo not drawn) [Cpd. 22, rosiglitazone, reference compound]
% inhibition of MCP1 secretion over mean Veh. (THP1 macrophages; 1 μM): 79%
% inhibition of TNFα secretion over mean Veh. (THP1 macrophages; 1 μM): 36%
% inhibition of MCP1 secretion over mean Veh. (THP1 macrophages; 10 μM, 10 µM): 117%
% inhibition of TNFα secretion over mean Veh. (THP1 macrophages; 10 μM, 10 µM): 11%

O=C(O)CCCc1cc2cc(Cl)ccc2n1S(=O)(=O)c1ccc2ncsc2c1 [Cpd. 23, lanifibranor, reference compound]
inhibition at 1 µM (THP1 macrophages; [3]): 100%
inhibition at 1 µM (THP1 macrophages; [4]): 15%

COC(CCc1cc(C)c(OC(C)(C)C(=O)O)c(C)c1)c1ccc(SC)cc1 (stereo not drawn) [Cpd. 4, 2-[2,6-dimethyl-4-[3-[4-(methylthio)phenyl]-3-methoxypropyl]phenoxy]-2-methylpropanoic acid]
% inhibition of MCP1 secretion over mean Veh. (THP1 macrophages; 10 μM, 10 µM): 110%
inhibition at 1 µM (THP1 macrophages; [3]): 100%
% Inhibition of caspase activity over mean Veh. (HepG2 cells): 32%
inhibition at 0.3 µM (HepG2 cells): 26 to 79%

Cc1cc(CCC(=O)c2ccc(C(F)(F)F)cc2)cc(C)c1OC(C)(C)C(=O)O [Cpd. 3, 2-[2,6-dimethyl-4-[3-[4-(trifluoromethyl)phenyl]-3-oxo-propyl]phenoxy]-2-methylpropanoic acid]
inhibition at 1 µM (THP1 macrophages; [3]): 90%
inhibition at 1 µM (THP1 macrophages; [4]): 0%
inhibition at 10 µM (THP1 macrophages; [4]): 11 to 58%

CC(C)(Oc1ccc(CCNC(=O)c2ccc(Cl)cc2)cc1)C(=O)O [Cpd. 17, bezafibrate, reference compound]
inhibition at 1 µM (THP1 macrophages; [3]): 22%
inhibition at 10 µM (THP1 macrophages; [3]): 54 to 132%

CC[C@@H](Oc1cccc(CN(CCCOc2ccc(OC)cc2)c2nc3ccccc3o2)c1)C(=O)O [Cpd. 18, pemafibrate, reference compound]
decrease of circulating IL10 level compared to vehicle [2]: 52%
serum albumin level [2]: restore albumin concentration
